Experimental data published in patent publication US20250270246A1, “LINCOSAMIDES AND USES THEREOF” (President and Fellows of Harvard College, priority 2022, published 2025).
Counter-ions that a name gives are not always drawn. Like-named read-outs stand apart in the source and are kept apart here.

Tests used:
Test in all cases: MIC by broth microdilution (CLSI)
Format in all cases: cell-based
[1] = tested on: A. baumannii ATCC 19606 (HAV#010); conditions: Acinetobacter baumannii, ATCC19606, 24 h, read-out: MIC A. baumannii ATCC 19606
How it was run: (§1)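 MIC read as the lowest compound level with no visible growth at 24 h (μg/mL). CLSI microdilution; CaMHB (Chelex 100-treated for P. aeruginosa); 5×10^5 CFU/mL; range 64-0.06 μg/mL; DMSO 2.5% final.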

[2] = tested on: E. coli ATCC 25922 (HAV#006); conditions: Escherichia coli, ATCC25922, 24 h, read-out: MIC E. coli ATCC 25922
How it was run: as §1

E. coli lptD mutant = conditions: Escherichia coli, 24 h, read-out: MIC E. coli lptD mutant, lptD mutant / ΔlptD mutant; CaMHB, 24 h incubation
How it was run: as §1

E. coli ΔtolC = conditions: Escherichia coli, 24 h, read-out: MIC E. coli ΔtolC, ΔtolC; CaMHB, 24 h incubation
How it was run: as §1

[3] = tested on: E. faecalis ATCC 29212 (HAV#005); conditions: Enterococcus faecalis, ATCC29212, 24 h, read-out: MIC E. faecalis ATCC 29212
How it was run: as §1

E. faecium JMI-990536 = conditions: Enterococcus faecium, JMI990536, 24 h, read-out: MIC E. faecium JMI-990536
How it was run: as §1

K. pneumoniae JMI-991193 = conditions: Klebsiella pneumoniae, JMI991193, 24 h, read-out: MIC K. pneumoniae JMI-991193
How it was run: as §1

[4] = tested on: S. aureus ATCC 29213 (HAV#001); conditions: Staphylococcus aureus, ATCC29213, 24 h, read-out: MIC S. aureus ATCC 29213
How it was run: as §1

S. aureus Clinical (cfr) = conditions: Staphylococcus aureus, 24 h, read-out: MIC S. aureus Clinical (cfr)
How it was run: as §1

S. aureus MMX 3035 = conditions: Staphylococcus aureus, MMX3035, 24 h, read-out: MIC S. aureus MMX 3035
How it was run: as §1

S. pneumoniae c-ermB = conditions: Streptococcus pneumoniae, 24 h, read-out: MIC S. pneumoniae c-ermB
How it was run: as §1

E. coli HAV#038, ΔTolC = conditions: Escherichia coli, 24 h, read-out: MIC E. coli HAV#038, ΔTolC
How it was run: as §1

E. coli HAV#040, LptD = conditions: Escherichia coli, 24 h, read-out: MIC E. coli HAV#040, LptD
How it was run: as §1

[5] = tested on: K. pneumoniae HAV#402, FQ-R; conditions: Klebsiella pneumoniae; FQ-R; CaMHB, 24 h incubation; read-out: MIC K. pneumoniae HAV#402, FQ-R
How it was run: as §1

[6] = tested on: S. aureus HAV#031, c-ermA; conditions: Staphylococcus aureus; c-ermA; CaMHB, 24 h incubation; read-out: MIC S. aureus HAV#031, c-ermA
How it was run: as §1

S. aureus HAV#216, cfr = conditions: Staphylococcus aureus; cfr; CaMHB, 24 h incubation; read-out: MIC S. aureus HAV#216, cfr
How it was run: as §1

E. coli Clinical (armA) = conditions: Escherichia coli, 24 h, read-out: MIC E. coli Clinical (armA)
How it was run: as §1

[7] = tested on: E. faecium HAV#318, VRE; clinical; conditions: Enterococcus faecium, CaMHB, 24 h incubation, read-out: MIC E. faecium HAV#318, VRE
How it was run: as §1

[8] = HAV#010, ATCC 19606, CaMHB, 24 h incubation
[9] = HAV#006, ATCC 25922, CaMHB, 24 h incubation
[10] = HAV#005, ATCC 29212, CaMHB, 24 h incubation
[11] = HAV#001, ATCC 29213, CaMHB, 24 h incubation

Row | Compound | MIC [2] | MIC (E. coli lptD mutant) | MIC (E. coli ΔtolC) | MIC [3] | MIC (K. pneumoniae JMI-991193) | MIC [4] | MIC (S. aureus Clinical (cfr)) | MIC (S. aureus MMX 3035) | MIC [1, 8] | MIC [2, 9] | MIC (E. coli HAV#038, ΔTolC) | MIC (E. coli HAV#040, LptD) | MIC [5] | MIC [4, 11] | MIC [6] | MIC (S. aureus HAV#216, cfr) | MIC (E. coli Clinical (armA)) | further results
1 | CC(C)C[C@@H]1CCO[C@@H]2[C@H](CN[C@@H]2C(=O)N[C@H]2[C@H]3O[C@H](S[C@H](c4cn(-c5cccc(Cl)c5)nn4)C/C=C\[C@H]2C)[C@H](O)[C@@H](O)[C@H]3O)C1 [FSA1609015, (4S,5aS,8S,8aR)—N-((1R,3S,7R,8R,9R,10R,11S,12R,Z)-3-(1-(3-chlorophenyl)-1H-1,2,3-triazol-4-yl)-10,11,12-trihydroxy-7-methyl-13-oxa-2-thiabicyclo[7.3.1]tridec-5-en-8-yl)-4-isobutyloctahydro-2H-oxepino[2,3-c]pyrrole-8-carboxamide formate salt] | 8 µg/mL | 2 µg/mL | 2 µg/mL | 2 µg/mL | 32 µg/mL | 1 µg/mL | 2 µg/mL | 2 µg/mL | – | – | – | – | – | – | – | – | – | MIC [1]: 8 µg/mL; MIC (E. faecium JMI-990536): 0.5 µg/mL; MIC (S. pneumoniae c-ermB): 0.25 µg/mL
2 | CC(C)C[C@@H]1CCO[C@@H]2[C@H](CN[C@@H]2C(=O)N[C@H]2[C@H]3O[C@H](SCCCCC2(C)C)[C@H](O)[C@@H](O)[C@H]3O)C1 [FSA1504068, (4S,5aS,8S,8aR)-4-isobutyl-N-((1R,8R,9R,10R,11S,12R)-10,11,12-trihydroxy-7,7-dimethyl-13-oxa-2-thiabicyclo[7.3.1]tridecan-8-yl) octahydro-2H-oxepino[2,3-c]pyrrole-8-carboxamide formate salt] | – | – | – | – | – | – | – | – | > 64 µg/mL | 64 µg/mL | 32 µg/mL | 64 µg/mL | > 64 µg/mL | 0.5 µg/mL | > 64 µg/mL | > 64 µg/mL | – | MIC [3, 10]: 2 µg/mL
3 | CC(C)C[C@@H]1CCO[C@@H]2[C@H](CN[C@@H]2C(=O)N[C@@H]2C/C=C\C[C@H](CNC(=O)c3ccc(F)cc3)S[C@H]3O[C@H]2[C@H](O)[C@H](O)[C@H]3O)C1 [FSA1608089, (4S,5aS,8S,8aR)—N-((1R,3R,8R,9R,10R,11S,12R,Z)-3-((4-fluorobenzamido)methyl)-10,11,12-trihydroxy-13-oxa-2-thiabicyclo[7.3.1]tridec-5-en-8-yl)-4-isobutyloctahydro-2H-oxepino[2,3-c]pyrrole-8-carboxamide formate salt] | 16 µg/mL | 1 µg/mL | 2 µg/mL | 1 µg/mL | > 64 µg/mL | 2 µg/mL | 8 µg/mL | 8 µg/mL | – | – | – | – | – | – | – | – | 64 µg/mL | –
4 | CC(C)C[C@@H]1CCO[C@@H]2[C@H](CN[C@@H]2C(=O)N[C@H]2[C@H]3O[C@H](S[C@H](CF)C/C=C\[C@H]2C)[C@H](O)[C@@H](O)[C@H]3O)C1 [FSA1609034, (4S,5aS,8S,8aR)—N-((1R,3S,7R,8R,9R,10R,11S,12R,Z)-3-(fluoromethyl)-10,11,12-trihydroxy-7-methyl-13-oxa-2-thiabicyclo[7.3.1]tridec-5-en-8-yl)-4-isobutyloctahydro-2H-oxepino[2,3-c]pyrrole-8-carboxamide formate salt] | 1 µg/mL | 0.25 µg/mL | ≤ 0.06 µg/mL | ≤ 0.06 µg/mL | 2 µg/mL | ≤ 0.06 µg/mL | 0.25 µg/mL | 0.25 µg/mL | – | – | – | – | – | – | – | – | 2 µg/mL | –
5 | CC(C)C[C@@H]1CCO[C@@H]2[C@H](CN[C@@H]2C(=O)N[C@@H]2C/C=C\C[C@H](CN)S[C@H]3O[C@H]2[C@H](O)[C@H](O)[C@H]3O)C1 [FSA1608082, (4S,5aS,8S,8aR)—N-((1R,3R,8R,9R,10R,11S,12R,Z)-3-(aminomethyl)-10,11,12-trihydroxy-13-oxa-2-thiabicyclo[7.3.1]tridec-5-en-8-yl)-4-isobutyloctahydro-2H-oxepino[2,3-c]pyrrole-8-carboxamide hydrochloride salt] | 32 µg/mL | 1 µg/mL | 2 µg/mL | 2 µg/mL | > 64 µg/mL | 1 µg/mL | 16 µg/mL | 16 µg/mL | – | – | – | – | – | – | – | – | 64 µg/mL | –
6 | CC(C)C[C@@H]1CCO[C@@H]2[C@H](CN[C@@H]2C(=O)N[C@@H]2CC(C)(C)/C=C/CS[C@H]3O[C@H]2[C@H](O)[C@H](O)[C@H]3O)C1 [FSA1503085, (4S,5aS,8S,8aR)-4-isobutyl-N-((1R,8R,9R,10R,11S,12R,E)-10,11,12-trihydroxy-6,6-dimethyl-13-oxa-2-thiabicyclo[7.3.1]tridec-4-en-8-yl) octahydro-2H-oxepino[2,3-c]pyrrole-8-carboxamide formate salt] | – | – | – | – | – | – | – | – | 64 µg/mL | 64 µg/mL | 4 µg/mL | 8 µg/mL | > 64 µg/mL | 0.25 µg/mL | 32 µg/mL | 8 µg/mL | – | MIC [3, 10]: 0.25 µg/mL
7 | CC(C)C[C@@H]1CCO[C@@H]2[C@H](CN[C@@H]2C(=O)N[C@@H]2C/C=C\C[C@@H](CNC(=O)c3ccc(F)cc3)S[C@H]3O[C@H]2[C@H](O)[C@H](O)[C@H]3O)C1 [FSA1608088, (4S,5aS,8S,8aR)—N-((1R,3S,8R,9R,10R,11S,12R,Z)-3-((4-fluorobenzamido)methyl)-10,11,12-trihydroxy-13-oxa-2-thiabicyclo[7.3.1]tridec-5-en-8-yl)-4-isobutyloctahydro-2H-oxepino[2,3-c]pyrrole-8-carboxamide formate salt] | 8 µg/mL | 0.5 µg/mL | 2 µg/mL | 1 µg/mL | 32 µg/mL | 1 µg/mL | 8 µg/mL | 8 µg/mL | – | – | – | – | – | – | – | – | 16 µg/mL | –
8 | CC(C)C[C@@H]1CCO[C@@H]2[C@H](CN[C@@H]2C(=O)N[C@@H]2C/C=C\C[C@@H](CN)S[C@H]3O[C@H]2[C@H](O)[C@H](O)[C@H]3O)C1 [FSA1608083, (4S,5aS,8S,8aR)—N-((1R,3S,8R,9R,10R,11S,12R,Z)-3-(aminomethyl)-10,11,12-trihydroxy-13-oxa-2-thiabicyclo[7.3.1]tridec-5-en-8-yl)-4-isobutyloctahydro-2H-oxepino[2,3-c]pyrrole-8-carboxamide hydrochloride salt] | 16 µg/mL | 1 µg/mL | 2 µg/mL | 1 µg/mL | > 64 µg/mL | 1 µg/mL | 32 µg/mL | 16 µg/mL | – | – | – | – | – | – | – | – | 64 µg/mL | –
9 | CC(C)C[C@@H]1CCO[C@@H]2[C@H](CN[C@@H]2C(=O)N[C@H]2C3OC(SC/C=C\CC2(C)C)C(O)C(O)C3O)C1 (single isomer, unassigned) [FSA1504066B, formate salt] | – | – | – | – | – | – | – | – | 64 µg/mL | 64 µg/mL | 32 µg/mL | 64 µg/mL | 64 µg/mL | 0.5 µg/mL | 32 µg/mL | > 64 µg/mL | – | MIC [7]: 4 µg/mL
10 | CC(C)C[C@@H]1CCO[C@@H]2[C@H](CN[C@@H]2C(=O)N[C@H]2[C@H]3OC(SC/C=C/CC2(C)C)[C@H](O)C(O)C3O)C1 (single isomer, unassigned) [FSA1504066A, formate salt] | – | – | – | – | – | – | – | – | 8 µg/mL | 32 µg/mL | 1 µg/mL | 2 µg/mL | 32 µg/mL | ≤ 0.06 µg/mL | 4 µg/mL | > 64 µg/mL | – | MIC [7]: 1 µg/mL
